The subject of data set [1] is C6661. Kind of data set: Antiproliferation activity against human C6661 cells assessed as reduction in cell viability incubated for 48 hrs by MTT assay. The format is functional, cell-based.
The subject of data set [2] is CNE. Kind of data set: Antiproliferation activity against human CNE1 cells assessed as reduction in cell viability incubated for 48 hrs by MTT assay. The format is functional, cell-based. A general note: Tetrazolium dyes change colour on reduction, which living cells bring about.
The subject of data set [3] is C6661. The data set is described as follows: Down regulation of S100P protein expression level in human C6661 cells at 2 to 10 umol/l incubated for 48 hrs by Western-blot analysis relative to control. The format is functional, cell-based.
The subject of data set [4] is CNE. The data set is described as follows: Antiproliferation activity against human CNE1 cells assessed as reduction in cell viability at 2 to 10 umol/l incubated for 48 hrs by MTT assay relative to control. Type of data set: functional, cell-based.
Data set [5] deals with C6661. Kind of data set: Induction of apoptosis in human C6661 cells assessed as increase in apoptotic cells population at 10 umol/l incubated for 48 hrs by annexin V-FITC / propidium iodide staining based flow cytometry. The format is functional. On the technique in general: In flow cytometry, cells or beads pass a laser one at a time.
Data set [6] deals with C6661. The data set is described as follows: Antimetastatic activity in human C6661 cells assessed as reduction in cell invasion after 48 hrs by hematoxylin staining-based transwell invasion assay. Type of data set: functional.
In data set [7] the test system is C6661. The data set is described as follows: Antimetastatic activity in human C6661 cells assessed as cell invasion at 2 umol/l after 48 hrs by hematoxylin staining-based transwell invasion assay relative to control. The format is functional.
The test system of data set [8] is C6661. Kind of data set: Down regulation of RAGE protein expression level in human C6661 cells at 4 to 10 umol/l incubated for 48 hrs by Western-blot analysis relative to control. The format is functional, cell-based.
Data set [9] deals with C6661. The data set is described as follows: Down regulation of CD44 protein expression level in human C6661 cells at 4 to 10 umol/l incubated for 48 hrs by Western-blot analysis relative to control. Type of data set: functional, cell-based.
In data set [10] the test system is CNE. Kind of data set: Antiproliferation activity against human CNE1 cells assessed as reduction in cell viability at 10 umol/l incubated for 48 hrs by MTT assay. The format is functional.
Data set [11] has as its system C6661. Kind of data set: Induction of apoptosis in human C6661 cells assessed as increase in apoptotic cells population at 4 umol/l incubated for 48 hrs by annexin V-FITC / propidium iodide staining based flow cytometry. The format is functional.
The subject of data set [12] is C6661. The data set is described as follows: Down regulation of MMP-9 protein expression level in human C6661 cells at 1 umol/l incubated for 48 hrs by Western-blot analysis relative to control. Type of data set: functional, cell-based.
In data set [13] the test system is C6661. The data set is described as follows: Antimetastatic activity in human C6661 cells assessed as cell invasion at 10 umol/l after 48 hrs by hematoxylin staining-based transwell invasion assay relative to control. Type of data set: functional.
In data set [14] the test system is C6661. Kind of data set: Induction of apoptosis in human C6661 cells assessed as enhanced early apoptotic cells population at 1 to 10 umol/l incubated for 48 hrs by annexin V-FITC / propidium iodide staining based flow cytometry. The format is functional.
The test system of data set [15] is C6661. Kind of data set: Antimetastatic activity in human C6661 cells assessed as cell invasion at 1 umol/l after 48 hrs by hematoxylin staining-based transwell invasion assay relative to control. The format is functional.
The test system of data set [16] is C6661. Kind of data set: Antiproliferation activity against human C6661 cells assessed as reduction in cell viability at 10 umol/l incubated for 48 hrs by MTT assay relative to control. Type of data set: functional.
The subject of data set [17] is C6661. Kind of data set: Antimetastatic activity in human C6661 cells assessed as cell invasion at 6 umol/l after 48 hrs by hematoxylin staining-based transwell invasion assay relative to control. The format is functional.
In data set [18] the test system is C6661. The data set is described as follows: Antiproliferation activity against human C6661 cells assessed as reduction in cell viability at 1 umol/l incubated for 48 hrs by MTT assay. Type of data set: functional, cell-based.
Data set [19] relates to C6661. The data set is described as follows: Down regulation of MMP-9 protein expression level in human C6661 cells at 4 to 10 umol/l incubated for 48 hrs by Western-blot analysis relative to control. The format is functional, cell-based.
Data set [20] relates to C6661. Kind of data set: Antimetastatic activity in human C6661 cells assessed as cell invasion at 4 umol/l after 48 hrs by hematoxylin staining-based transwell invasion assay relative to control. Type of data set: functional.
Data set [21] relates to C6661. The data set is described as follows: Down regulation of S100P mRNA expression in human C6661 cells at 2 to 10 umol/l incubated for 48 hrs by RT-qPCR analysis relative to control. The format is functional, cell-based.
Data set [22] relates to C6661. The data set is described as follows: Down regulation of MMP-2 protein expression level in human C6661 cells at 1 umol/l incubated for 48 hrs by Western-blot analysis relative to control. The format is functional, cell-based.
The subject of data set [23] is C6661. Kind of data set: Down regulation of RAGE protein expression level in human C6661 cells at 1 umol/l incubated for 48 hrs by Western-blot analysis relative to control. Type of data set: functional, cell-based.
For data set [24], the system named is C6661. The data set is described as follows: Antiproliferation activity against human C6661 cells assessed as reduction in cell viability at 2 to 10 umol/l incubated for 48 hrs by MTT assay relative to control. The format is functional, cell-based.
Data set [25] deals with C6661. Kind of data set: Induction of apoptosis in human C6661 cells assessed as increase in apoptotic cells population at 2 umol/l incubated for 48 hrs by annexin V-FITC / propidium iodide staining based flow cytometry. The format is functional.
Data set [26] relates to C6661. The data set is described as follows: Down regulation of EGFR protein expression level in human C6661 cells at 4 to 10 umol/l incubated for 48 hrs by Western-blot analysis relative to control. Type of data set: functional, cell-based.
The subject of data set [27] is C6661. The data set is described as follows: Down regulation of MMP-2 protein expression level in human C6661 cells at 4 to 10 umol/l incubated for 48 hrs by Western-blot analysis relative to control. Type of data set: functional, cell-based.
The nature of data set [28]: Cytotoxicity against human NP69 cell assessed as reduction in cell viability at 2 to 10 umol/l incubated for 48 hrs by MTT assay.
The test system of data set [29] is CNE. Kind of data set: Antiproliferation activity against human CNE1 cells assessed as reduction in cell viability at 1 umol/l incubated for 48 hrs by MTT assay. Type of data set: functional, cell-based.
For data set [30], the system named is C6661. Kind of data set: Induction of apoptosis in human C6661 cells assessed as increase in apoptotic cells population at 6 umol/l incubated for 48 hrs by annexin V-FITC / propidium iodide staining based flow cytometry. The format is functional.
The test system of data set [31] is C6661. Kind of data set: Down regulation of CD44 protein expression level in human C6661 cells at 1 umol/l incubated for 48 hrs by Western-blot analysis relative to control. Type of data set: functional, cell-based.
Data set [32] has as its system C6661. The data set is described as follows: Down regulation of EGFR protein expression level in human C6661 cells at 1 umol/l incubated for 48 hrs by Western-blot analysis relative to control. Type of data set: functional, cell-based.

Active and inactive are the calls of the source. The calls are words filed in the database; no cut-off is given here.

On to `O=C1CCCCC(=O)C1=CSc1ccccc1Br`, for which the outcome in the data set on C6661 [1] and in the data set on CNE [2] was Active.
Consider `O=C1CCCCC(=O)C1=CSc1ccccc1F`, for which the result with C6661 [1] and in the data set on CNE [2] was Active.
On to `Cc1ncccc1SC=C1C(=O)CCCCC1=O`, for which the outcome in the data set on C6661 [1] and with CNE [2] was Active.
For the molecule `N#Cc1ccccc1SC=C1C(=O)CCCCC1=O`, the outcome in the data set with C6661 [1] and in the data set on CNE [2] was Active.
As to `O=C1CCCCC(=O)C1=CSc1ccccc1Cl`, the outcome with C6661 [1] and in the data set on CNE [2] was Active.
Take `O=C1CCCCC(=O)C1=CSc1ccccc1C(F)(F)F`: the Activity result in the data set on C6661 [3] was “Dose-dependent effect”; in the data set on C6661 [5], 61.78%; with C6661 [6] it was “Dose-dependent effect”; with C6661 [7] it was 89%; with CNE [10], 24%; in the data set with C6661 [11], 23.45%. Moreover, the Activity in the data set on C6661 [13] was 11%; in the data set on C6661 [14] it was 2.76 - 69.43%; with C6661 [15], 99%; in the data set on C6661 [16] it was 26%; in the data set on C6661 [17], 22%; in the data set on C6661 [20], 63%. Further, the Activity result was “Dose-dependent effect” in the data set with C6661 [21], 10.54% in the data set on C6661 [25], “Non-Toxic” in data set [28] and 46.24% in the data set on C6661 [30]. Also, the outcome in the data set on CNE [4], in the data set on C6661 [8], with C6661 [9], in the data set on C6661 [1], in the data set on C6661 [19] and with CNE [2] was Active. Further, the result in the data set on C6661 [24], with C6661 [26] and with C6661 [27] was Active. In addition, the outcome in the data set with C6661 [12], with C6661 [18], with C6661 [22], in the data set with C6661 [23], in the data set with CNE [29] and in the data set with C6661 [31] was inactive. For the same molecule, the outcome in the data set on C6661 [32] was inactive.
As for `O=C1CCCCC(=O)C1=CSc1ccccc1[N+](=O)[O-]`, the result in the data set on C6661 [1] and in the data set with CNE [2] was Active.

For the origin of these results see ChEMBL document CHEMBL4340515, “Dione-thiophene conjugate inhibits proliferation and metastasis of nasopharyngeal carcinoma cells through calcium binding protein-P down-regulation” (Eur J Med Chem, 2019).
